Experiment [1] addresses T1, HDM2 (Homo sapiens, UniProt Q00987). The experiment can be described thus: Fluorescent polarization assay (FAM-labeled p53 peptide ligand competition). It counts as binding. Conditions: 10 nM HDM2 protein, 1 nM FAM-labeled p53 peptide ligand, PBS buffer; for Ki: non-linear regression.
Experiment [2] addresses T1, HDM2. The experiment can be described thus: TdF assay (thermal melting with Sypro Orange). It counts as binding. Conditions: 6 uM HDM2, 10 mM HEPES pH 7.4, 150 mM NaCl, 1 mM DTT, 10 and 20 uM compound.

A value given as a limit tells only on which side of the number the result lay.

T1 sequence (Q00987 whole entry): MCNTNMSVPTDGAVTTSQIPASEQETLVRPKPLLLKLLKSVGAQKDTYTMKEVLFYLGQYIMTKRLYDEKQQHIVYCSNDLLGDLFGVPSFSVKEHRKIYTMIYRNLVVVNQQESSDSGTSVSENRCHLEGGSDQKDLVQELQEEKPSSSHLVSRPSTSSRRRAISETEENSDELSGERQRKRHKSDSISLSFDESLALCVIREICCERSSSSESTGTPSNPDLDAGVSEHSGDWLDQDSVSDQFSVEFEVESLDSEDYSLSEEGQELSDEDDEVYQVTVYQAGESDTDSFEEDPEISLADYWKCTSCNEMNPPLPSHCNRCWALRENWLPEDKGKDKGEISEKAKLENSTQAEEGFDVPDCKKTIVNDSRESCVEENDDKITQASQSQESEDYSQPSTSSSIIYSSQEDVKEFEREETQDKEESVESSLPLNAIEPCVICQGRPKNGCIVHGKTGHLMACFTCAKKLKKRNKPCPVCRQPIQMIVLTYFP

As for `O=C(c1cnccc1C(F)(F)F)N1CCCC(Oc2ccc(C(F)(F)F)cc2)(C(=O)N2CCN(c3ccccn3)CC2)C1` (stereo not drawn) [Compound 1], on HDM2 [1], the concentration for half-maximal inhibition (IC50) is below 5 µM and the Ki was below 2 µM. At HDM2 [2], this molecule came in with a dissociation constant (Kd) below 2 µM.
At HDM2 [1], `COCCOc1ccccc1N1CCN(C(=O)[C@]2(Oc3ccc(C(F)(F)F)cc3)CCCN(C(=O)c3cnccc3C(F)(F)F)[C@@H]2C(O)C(C)O)CC1` (stereo partly drawn) [Compound 4] yielded an IC50 below 5 µM and a Ki below 2 µM. This molecule also came in with a dissociation constant Kd at HDM2 [2] below 2 µM.

The record behind these values is patent US7888474B2, “HDM2 polypeptides” (Schering Corporation, priority 2007, dated 2011).
